Assays:
EBC1 cells = assay: Assay for inhibiting the proliferation of EBC1 cells (CCK-8); type: cell-based; conditions: Homo sapiens, EBC-1
Procedure, shortened: (§1)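 Cells seeded in 96-well plates overnight, then exposed 72 h to 9 three-fold dilutions of compound (0.25% DMSO final). Viability by CCK-8 (1-2 h at 37° C., OD 450 nm), survival normalized to untreated and cell-free blanks; IC50 by curve fitting.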

Ba/F3-AXL cells = assay: Assay for inhibiting the proliferation of Ba/F3-AXL cells (CCK-8); type: cell-based; conditions: 72 hours of incubation, medium with 100 ng/mL hGas6, CCK-8
Description: The values were then imported into Graphpad Prism 5 software for curve fitting, and IC50 was calculated.

VEGFR-2 kinase = VEGFR-2 kinase (Homo sapiens (Human), UniProt P35968); assay: Assay of small molecular compounds for inhibiting the activity of VEGFR-2 kinase (LANCE TR-FRET); type: biochemical; conditions: read-out: VEGFR2 IC50
VEGFR-2 kinase, sequence (P35968 20-1356): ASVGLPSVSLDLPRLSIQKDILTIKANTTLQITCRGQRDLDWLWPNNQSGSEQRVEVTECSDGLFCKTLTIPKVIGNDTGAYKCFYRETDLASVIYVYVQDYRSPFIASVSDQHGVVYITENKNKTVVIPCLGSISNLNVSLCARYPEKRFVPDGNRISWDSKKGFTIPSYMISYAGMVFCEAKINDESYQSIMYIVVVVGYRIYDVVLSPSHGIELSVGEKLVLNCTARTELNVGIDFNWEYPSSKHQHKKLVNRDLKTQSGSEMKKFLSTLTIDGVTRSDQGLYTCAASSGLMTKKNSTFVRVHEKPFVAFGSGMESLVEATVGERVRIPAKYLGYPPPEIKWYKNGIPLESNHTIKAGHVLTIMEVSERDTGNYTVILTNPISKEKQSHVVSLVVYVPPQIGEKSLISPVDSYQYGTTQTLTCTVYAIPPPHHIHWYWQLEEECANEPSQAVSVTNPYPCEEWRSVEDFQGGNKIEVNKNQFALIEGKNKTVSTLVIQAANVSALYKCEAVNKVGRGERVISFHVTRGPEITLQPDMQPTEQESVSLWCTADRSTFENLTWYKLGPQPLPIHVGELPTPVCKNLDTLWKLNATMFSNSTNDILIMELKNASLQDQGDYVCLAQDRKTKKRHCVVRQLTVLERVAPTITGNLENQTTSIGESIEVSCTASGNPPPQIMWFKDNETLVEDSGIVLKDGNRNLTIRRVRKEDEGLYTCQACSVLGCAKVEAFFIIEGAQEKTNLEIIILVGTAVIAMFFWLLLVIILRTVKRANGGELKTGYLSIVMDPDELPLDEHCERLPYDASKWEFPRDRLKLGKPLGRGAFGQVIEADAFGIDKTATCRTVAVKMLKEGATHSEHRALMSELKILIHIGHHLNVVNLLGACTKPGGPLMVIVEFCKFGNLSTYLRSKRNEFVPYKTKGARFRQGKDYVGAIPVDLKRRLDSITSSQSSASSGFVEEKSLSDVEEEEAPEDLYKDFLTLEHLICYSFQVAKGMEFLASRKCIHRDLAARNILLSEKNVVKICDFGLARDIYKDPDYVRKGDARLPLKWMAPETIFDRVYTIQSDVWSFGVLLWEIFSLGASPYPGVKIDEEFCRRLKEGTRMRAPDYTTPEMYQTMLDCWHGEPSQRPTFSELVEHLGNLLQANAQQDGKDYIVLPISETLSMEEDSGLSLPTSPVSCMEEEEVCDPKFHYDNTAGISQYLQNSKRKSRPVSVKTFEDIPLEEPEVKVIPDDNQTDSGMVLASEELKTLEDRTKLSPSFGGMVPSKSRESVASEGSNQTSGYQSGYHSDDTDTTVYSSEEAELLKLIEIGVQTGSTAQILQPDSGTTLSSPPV
Procedure, shortened: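 LANCE TR-FRET with human VEGFR-2 (2× stock 0.5 nM) preincubated 30 min with compound (final 2500 to 0.042 nM, 11-point 3-fold), then ULight-JAK-1 (Tyr1023) peptide/ATP added (4× stocks 200 nM/40 μM). Reaction 60 min room temperature, 4% DMSO; IC50 from inhibition-rate curve.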

MHCC97H cells = assay: Assay for inhibiting the proliferation of MHCC97H cells (CCK-8); type: cell-based; conditions: Homo sapiens
Procedure, shortened: as §1

| Structure (SMILES) | IC50 (Ba/F3-AXL cells) [nM] | IC50 (VEGFR-2 kinase) [nM] | IC50 (EBC1 cells) [nM] | IC50 (MHCC97H cells) [nM] |
| --- | --- | --- | --- | --- |
| COc1cc2ncnc(Oc3ccc(NC(=O)c4cccn(-c5ccc(F)cc5)c4=O)cc3F)c2c2c1OCCO2 [Example 1, N-(3-fluoro-4-((5-methoxy-2,3-dihydro-[1,4]dioxino[2,3-f]quinazolin-10-yl)oxy)phenyl)-1-(4-fluorophenyl)-2-oxo-1,2-dihydropyridine-3-carboxamide] | < 50 | ≤ 50 | 50 to 200 | ≤ 50 |
| COc1cc2ncnc(Oc3ccc(NC(=O)c4c(OC)ccn(-c5ccc(F)cc5)c4=O)cc3F)c2c2c1OCCO2 [Example 2, N-(3-fluoro-4-((5-methoxy-2,3-dihydro-[1,4]dioxino[2,3-f]quinazolin-10-yl)oxy)phenyl)-1-(4-fluorophenyl)-4-methoxy-2-oxo-1,2-dihydropyridine-3-carboxamide] | < 50 | 50 to 500 | 50 to 200 | 200 to 1000 |
| CCOc1ccn(-c2ccc(F)cc2)c(=O)c1C(=O)Nc1ccc(Oc2ncnc3cc(OC)c4c(c23)OCCO4)c(F)c1 [Example 3, N-(3-fluoro-4-((5-methoxy-2,3-dihydro-[1,4]dioxino[2,3-f]quinazolin-10-yl)oxy)phenyl)-1-(4-fluorophenyl)-4-ethoxy-2-oxo-1,2-dihydropyridine-3-carboxamide] | – | 50 to 500 | 50 to 200 | 50 to 200 |
| CCOc1cn(-c2ccc(F)cc2C)nc1C(=O)Nc1ccc(Oc2ncnc3cc(OCCCN4CCOCC4)c4c(c23)OCCO4)c(F)c1 [Example 12, 1-(4-fluoro-2-methylphenyl)-N-(3-fluoro-4-((5-(3-morpholinopropoxy)-2,3-dihydro-[1,4]dioxino[2,3-f]quinazolin-10-yl)oxy)phenyl)-4-ethoxy-1H-pyrazole-3-carboxamide] | – | 500 to 5000 | 200 to 1000 | 50 to 200 |
| CCn1cc(C(=O)Nc2ccc(Oc3ccnc4cc(OCCOC)c5c(c34)OCCO5)c(F)c2)c(=O)n(-c2ccc(F)cc2)c1=O [Example 44, N-(3-fluoro-4-((5-(2-methoxyethoxy)-2,3-dihydro-[1,4]dioxino[2,3-f]quinolin-10-yl)oxy)phenyl)-3-(4-fluorophenyl)-1-ethyl-2,4-dioxo-1,2,3,4-tetrahydropyrimidine-5-carboxamide] | < 50 | 50 to 500 | ≤ 50 | ≤ 50 |
| CCOc1ccn(-c2ccc(F)cc2)c(=O)c1C(=O)Nc1ccc(Oc2ccnc3cc(OCCCN4CCCC4)c4c(c23)OCCO4)c(F)c1 [Example 52, N-(4-((5-(3-(pyrrolidin-1-yl)propoxy)-2,3-dihydro-[1,4]dioxino[2,3-f]quinolin-10-yl)oxy)-3-fluorophenyl)-4-ethoxy-1-(4-fluorophenyl)-2-oxo-1,2-dihydropyridine-3-carboxamide] | < 50 | ≤ 50 | – | ≤ 50 |
| CC(C)n1cc(C(=O)Nc2ccc(Oc3ccnc4cc(OCCO)c5c(c34)OCCO5)c(F)c2)c(=O)n(-c2ccc(F)cc2)c1=O [Example 78, N-(3-fluoro-4-((5-(2-hydroxyethoxy)-2,3-dihydro-[1,4]dioxino[2,3-f]quinolin-10-yl)oxy)phenyl)-3-(4-fluorophenyl)-1-isopropyl-2,4-dioxo-1,2,3,4-tetrahydropyrimidine-5-carboxamide] | < 50 | 500 to 5000 | – | – |
| Cn1cc(C(=O)Nc2ccc(Oc3ccnc4cc(OC5CCOC5)c5c(c34)OCCO5)c(F)c2)c(=O)n(-c2ccc(F)cc2)c1=O (centres unmarked) [Example 90, N-(3-fluoro-4-((5-((tetrahydrofuran-3-yl)oxy)-2,3-dihydro-[1,4]dioxino[2,3-f]quinolin-10-yl)oxy)phenyl)-3-(4-fluorophenyl)-1-methyl-2,4-dioxo-1,2,3,4-tetrahydropyrimidine-5-carboxamide] | < 50 | 50 to 500 | – | – |

Second part, led by results:

| IC50 (Ba/F3-AXL cells) [nM] | IC50 (VEGFR-2 kinase) [nM] | Structure (SMILES) | IC50 (EBC1 cells) [nM] | IC50 (MHCC97H cells) [nM] |
| --- | --- | --- | --- | --- |
| – | 50 to 500 | COc1cn(-c2ccc(F)cc2C)nc1C(=O)Nc1ccc(Oc2ncnc3cc(OCCCN4CCOCC4)c4c(c23)OCCO4)c(F)c1 [Example 11, 1-(4-fluoro-2-methylphenyl)-N-(3-fluoro-4-((5-(3-morpholinopropoxy)-2,3-dihydro-[1,4]dioxino[2,3-f]quinazolin-10-yl)oxy)phenyl)-4-methoxy-1H-pyrazole-3-carboxamide] | 200 to 1000 | 200 to 1000 |
| < 50 | – | COCCOc1cc2nccc(Oc3ccc(NC(=O)c4cn(C(C)C)c(=O)n(-c5ccc(F)cc5)c4=O)cc3F)c2c2c1OCCO2 [Example 43, N-(3-fluoro-4-((5-(2-methoxyethoxy)-2,3-dihydro-[1,4]dioxino[2,3-f]quinolin-10-yl)oxy)phenyl)-3-(4-fluorophenyl)-1-isopropyl-2,4-dioxo-1,2,3,4-tetrahydropyrimidine-5-carboxamide] | – | – |
| < 50 | 500 to 5000 | COc1cc2nccc(Oc3ccc(NC(=O)c4cn(CCO)c(=O)n(-c5ccc(F)cc5)c4=O)cc3F)c2c2c1OCCO2 [Example 45, N-(3-fluoro-4-((5-methoxy-2,3-dihydro-[1,4]dioxino[2,3-f]quinolin-10-yl)oxy)phenyl)-3-(4-fluorophenyl)-1-(2-hydroxyethyl)-2,4-dioxo-1,2,3,4-tetrahydropyrimidine-5-carboxamide] | 50 to 200 | 200 to 1000 |
| < 50 | 500 to 5000 | COCCn1cc(C(=O)Nc2ccc(Oc3ccnc4cc(OC)c5c(c34)OCCO5)c(F)c2)c(=O)n(-c2ccc(F)cc2)c1=O [Example 46, N-(3-fluoro-4-((5-methoxy-2,3-dihydro-[1,4]dioxino[2,3-f]quinolin-10-yl)oxy)phenyl)-3-(4-fluorophenyl)-1-(2-methoxyethyl)-2,4-dioxo-1,2,3,4-tetrahydropyrimidine-5-carboxamide] | ≤ 50 | ≤ 50 |
| < 50 | ≤ 50 | CCOc1ccn(-c2ccc(F)cc2)c(=O)c1C(=O)Nc1ccc(Oc2ccnc3cc(OCC(C)C)c4c(c23)OCCO4)c(F)c1 [Example 58, N-(4-((5-(isobutyloxy)-2,3-dihydro-[1,4]dioxino[2,3-f]quinolin-10-yl)oxy)-3-fluorophenyl)-4-ethoxy-1-(4-fluorophenyl)-2-oxo-1,2-dihydropyridine-3-carboxamide] | – | – |
| < 50 | ≤ 50 | CCOc1ccn(-c2ccc(F)cc2)c(=O)c1C(=O)Nc1ccc(Oc2ccnc3cc(OCC4CC4)c4c(c23)OCCO4)c(F)c1 [Example 59, N-(4-((5-(cyclopropylmethoxy)-2,3-dihydro-[1,4]dioxino[2,3-f]quinolin-10-yl)oxy)-3-fluorophenyl)-4-ethoxy-1-(4-fluorophenyl)-2-oxo-1,2-dihydropyridine-3-carboxamide] | – | – |
| < 50 | 500 to 5000 | CC(C)n1cc(C(=O)Nc2ccc(Oc3ccnc4cc(OCCCN5CCS(=O)(=O)CC5)c5c(c34)OCCO5)c(F)c2)c(=O)n(-c2ccc(F)cc2)c1=O [Example 76, N-(3-fluoro-4-((5-(3-(1,1-dioxidothiomorpholino)propoxy)-2,3-dihydro-[1,4]dioxino[2,3-f]quinolin-10-yl)oxy)phenyl)-3-(4-fluorophenyl)-1-isopropyl-2,4-dioxo-1,2,3,4-tetrahydropyrimidine-5-carboxamide] | – | – |
| < 50 | 50 to 500 | CC(C)n1cc(C(=O)Nc2ccc(Oc3ccnc4cc(OCCCN5CCCC5)c5c(c34)OCCO5)c(F)c2)c(=O)n(-c2ccc(F)cc2)c1=O [Example 77, N-(3-fluoro-4-((5-(3-(pyrrolidin-1-yl)propoxy)-2,3-dihydro-[1,4]dioxino[2,3-f]quinolin-10-yl)oxy)phenyl)-3-(4-fluorophenyl)-1-isopropyl-2,4-dioxo-1,2,3,4-tetrahydropyrimidine-5-carboxamide] | – | – |
| < 50 | 500 to 5000 | CC(C)Oc1cc2nccc(Oc3ccc(NC(=O)c4cn(C)c(=O)n(-c5ccc(F)cc5)c4=O)cc3F)c2c2c1OCCO2 [Example 88, N-(3-fluoro-4-((5-isopropoxy-2,3-dihydro-[1,4]dioxino[2,3-f]quinolin-10-yl)oxy)phenyl)-3-(4-fluorophenyl)-1-methyl-2,4-dioxo-1,2,3,4-tetrahydropyrimidine-5-carboxamide] | – | – |
| < 50 | 50 to 500 | Cn1cc(C(=O)Nc2ccc(Oc3ccnc4cc(OC5CCOCC5)c5c(c34)OCCO5)c(F)c2)c(=O)n(-c2ccc(F)cc2)c1=O [Example 91, N-(3-fluoro-4-((5-((tetrahydropyran-4-yl)oxy)-2,3-dihydro-[1,4]dioxino[2,3-f]quinolin-10-yl)oxy)phenyl)-3-(4-fluorophenyl)-1-methyl-2,4-dioxo-1,2,3,4-tetrahydropyrimidine-5-carboxamide] | – | – |
| < 50 | 500 to 5000 | CC(C)n1cc(C(=O)Nc2ccc(Oc3ccnc4cc(OCCCN5CCC(C)(C)CC5)c5c(c34)OCCO5)c(F)c2)c(=O)n(-c2ccc(F)cc2)c1=O [Example 92, N-(3-fluoro-4-((5-(3-(4,4-dimethylpiperidin-1-yl)propoxy)-2,3-dihydro-[1,4]dioxino[2,3-f]quinolin-10-yl)oxy)phenyl)-3-(4-fluorophenyl)-1-isopropyl-2,4-dioxo-1,2,3,4-tetrahydropyrimidine-5-carboxamide] | – | – |
| < 50 | 50 to 500 | CC(C)n1cc(C(=O)Nc2ccc(Oc3ccnc4cc(OCCCN5CCC(C)(N)CC5)c5c(c34)OCCO5)c(F)c2)c(=O)n(-c2ccc(F)cc2)c1=O [Example 93, N-(3-fluoro-4-((5-(3-(4-amino-4-methylpiperidin-1-yl)propoxy)-2,3-dihydro-[1,4]dioxino[2,3-f]quinolin-10-yl)oxy)phenyl)-3-(4-fluorophenyl)-1-isopropyl-2,4-dioxo-1,2,3,4-tetrahydropyrimidine-5-carboxamide] | – | – |
